Assay results taken from ChEMBL document CHEMBL1201862, “PubChem BioAssay data set” (2004).
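Each compound was tested at five concentrations against cells in 96-well plates for 48 hours. GI50 is the concentration that inhibits growth by half.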 Active and inactive are the calls of the source. Cut-off read from the data, not from the text of the source: active = GI50 up to about 1.1 µM and inactive = higher.

Legend:
Experiment in all cases: growth of human tumour cells (NCI), 48 h
HCT-15 = tested on: HCT-15
MOLT-4 = tested on: MOLT-4
SF-539 = tested on: SF-539
MDA-MB-231 = tested on: MDA-MB-231
EKVX = tested on: EKVX
SK-MEL-28 = tested on: SK-MEL-28
NCI-H226 = tested on: NCI-H226
UACC-257 = tested on: UACC-257
IGROV-1 = tested on: IGROV-1
MDA-MB-435 = tested on: MDA-MB-435
HOP-92 = tested on: HOP-92
HL-60 = tested on: HL-60
U-251 = tested on: U-251
Hs-578T = tested on: Hs-578T
BT-549 = tested on: BT-549
A498 = tested on: A498
PC-3 = tested on: PC-3
RXF 393 = tested on: RXF 393
MCF7 = tested on: MCF7
NCI-H522 = tested on: NCI-H522
MDA-N = tested on: MDA-N
HCT-116 = tested on: HCT-116
SNB-75 = tested on: SNB-75
LOX IMVI = tested on: LOX IMVI
SK-OV-3 = tested on: SK-OV-3
SNB-19 = tested on: SNB-19
ACHN = tested on: ACHN
HT-29 = tested on: HT-29
A549 = tested on: A549
COLO 205 = tested on: COLO 205
SN12C = tested on: SN12C
KM12 = tested on: KM12
NCI-H460 = tested on: NCI-H460
SW-620 = tested on: SW-620
T47D = tested on: T47D
TK-10 = tested on: TK-10
HCC 2998 = tested on: HCC 2998
OVCAR-4 = tested on: OVCAR-4
NCI/ADR-RES = tested on: NCI/ADR-RES
SK-MEL-2 = tested on: SK-MEL-2
UO-31 = tested on: UO-31
OVCAR-8 = tested on: OVCAR-8
CCRF-CEM = tested on: CCRF-CEM
CAKI-1 = tested on: CAKI-1
OVCAR-5 = tested on: OVCAR-5
HOP-62 = tested on: HOP-62
K562 = tested on: K562
786-0 = tested on: 786-0
UACC-62 = tested on: UACC-62
OVCAR-3 = tested on: OVCAR-3
SF-295 = tested on: SF-295
M14 = tested on: M14
RPMI-8226 = tested on: RPMI-8226
NCI-H23 = tested on: NCI-H23
DU-145 = tested on: DU-145
SF-268 = tested on: SF-268
Malme-3M = tested on: Malme-3M
SK-MEL-5 = tested on: SK-MEL-5
SR = tested on: SR

C[C@]12CC[C@H]3[C@@H](CC=C4C[C@@H](O)CC[C@@]43C)[C@@H]1C[C@H](N1CCOCC1)[C@@H]2O
GI50 (HCT-15): > 100 µM | GI50 (MOLT-4): > 100 µM (inactive) | GI50 (SF-539): 40 µM (inactive) | GI50 (MDA-MB-231): 54.3 µM (inactive) | GI50 (EKVX): > 100 µM (inactive) | GI50 (SK-MEL-28): > 100 µM (inactive) | GI50 (NCI-H226): > 100 µM (inactive) | GI50 (UACC-257): > 100 µM (inactive) | GI50 (IGROV-1): > 100 µM (inactive) | GI50 (MDA-MB-435): > 100 µM (inactive) | GI50 (HOP-92): > 100 µM (inactive) | GI50 (HL-60): 48.5 µM (inactive) | GI50 (U-251): 49.2 µM (inactive) | GI50 (Hs-578T): 85.5 µM (inactive) | GI50 (BT-549): 27.9 µM (inactive) | GI50 (A498): 89.3 µM (inactive) | GI50 (PC-3): > 100 µM (inactive) | GI50 (RXF 393): 52.4 µM (inactive) | GI50 (MCF7): > 100 µM (inactive) | GI50 (NCI-H522): > 100 µM (inactive) | GI50 (MDA-N): > 100 µM (inactive) | GI50 (HCT-116): > 100 µM (inactive) | GI50 (SNB-75): 28.4 µM (inactive) | GI50 (LOX IMVI): > 100 µM (inactive) | GI50 (SK-OV-3): > 100 µM (inactive) | GI50 (SNB-19): > 100 µM (inactive) | GI50 (ACHN): > 100 µM (inactive) | GI50 (HT-29): 6.34 µM (inactive) | GI50 (A549): > 100 µM (inactive) | GI50 (COLO 205): > 100 µM (inactive) | GI50 (SN12C): > 100 µM (inactive) | GI50 (KM12): > 100 µM (inactive) | GI50 (NCI-H460): > 100 µM (inactive) | GI50 (SW-620): > 100 µM (inactive) | GI50 (T47D): > 100 µM (inactive) | GI50 (TK-10): > 100 µM (inactive) | GI50 (HCC 2998): > 100 µM (inactive) | GI50 (OVCAR-4): > 100 µM (inactive) | GI50 (NCI/ADR-RES): > 100 µM (inactive) | GI50 (SK-MEL-2): > 100 µM (inactive) | GI50 (UO-31): > 100 µM (inactive) | GI50 (OVCAR-8): > 100 µM (inactive) | GI50 (CCRF-CEM): > 100 µM (inactive) | GI50 (CAKI-1): > 100 µM (inactive) | GI50 (OVCAR-5): > 100 µM (inactive) | GI50 (HOP-62): > 100 µM (inactive) | GI50 (K562): 68.4 µM (inactive) | GI50 (786-0): 81.5 µM (inactive) | GI50 (UACC-62): > 100 µM (inactive) | GI50 (OVCAR-3): > 100 µM (inactive) | GI50 (SF-295): > 100 µM (inactive) | GI50 (M14): > 100 µM (inactive) | GI50 (RPMI-8226): > 100 µM (inactive) | GI50 (NCI-H23): > 100 µM (inactive) | GI50 (DU-145): > 100 µM (inactive) | GI50 (SF-268): > 100 µM (inactive) | GI50 (Malme-3M): > 100 µM (inactive) | GI50 (SK-MEL-5): 77.3 µM (inactive)

CC(C)=CCN=C(N)N
GI50 (SR): 16.7 µM (inactive) | GI50 (HCT-15): > 100 µM | GI50 (MOLT-4): 51.2 µM (inactive) | GI50 (SF-539): > 100 µM (inactive) | GI50 (MDA-MB-231): > 100 µM (inactive) | GI50 (EKVX): > 100 µM (inactive) | GI50 (SK-MEL-28): > 100 µM (inactive) | GI50 (NCI-H226): > 100 µM (inactive) | GI50 (UACC-257): > 100 µM (inactive) | GI50 (IGROV-1): > 100 µM (inactive) | GI50 (MDA-MB-435): > 100 µM (inactive) | GI50 (HOP-92): > 100 µM (inactive) | GI50 (HL-60): 45.8 µM (inactive) | GI50 (U-251): > 100 µM (inactive) | GI50 (Hs-578T): > 100 µM (inactive) | GI50 (BT-549): > 100 µM (inactive) | GI50 (PC-3): > 100 µM (inactive) | GI50 (RXF 393): > 100 µM (inactive) | GI50 (MCF7): > 100 µM (inactive) | GI50 (NCI-H522): > 100 µM (inactive) | GI50 (MDA-N): > 100 µM (inactive) | GI50 (HCT-116): > 100 µM (inactive) | GI50 (LOX IMVI): > 100 µM (inactive) | GI50 (SK-OV-3): > 100 µM (inactive) | GI50 (SNB-19): > 100 µM (inactive) | GI50 (ACHN): > 100 µM (inactive) | GI50 (HT-29): > 100 µM (inactive) | GI50 (A549): > 100 µM (inactive) | GI50 (COLO 205): > 100 µM (inactive) | GI50 (SN12C): > 100 µM (inactive) | GI50 (KM12): > 100 µM (inactive) | GI50 (NCI-H460): > 100 µM (inactive) | GI50 (SW-620): > 100 µM (inactive) | GI50 (T47D): > 100 µM (inactive) | GI50 (TK-10): > 100 µM (inactive) | GI50 (HCC 2998): > 100 µM (inactive) | GI50 (OVCAR-4): > 100 µM (inactive) | GI50 (NCI/ADR-RES): > 100 µM (inactive) | GI50 (SK-MEL-2): > 100 µM (inactive) | GI50 (UO-31): > 100 µM (inactive) | GI50 (OVCAR-8): > 100 µM (inactive) | GI50 (CCRF-CEM): > 100 µM (inactive) | GI50 (CAKI-1): > 100 µM (inactive) | GI50 (786-0): > 100 µM (inactive) | GI50 (UACC-62): > 100 µM (inactive) | GI50 (SF-295): > 100 µM (inactive) | GI50 (RPMI-8226): 24.9 µM (inactive) | GI50 (NCI-H23): > 100 µM (inactive) | GI50 (DU-145): > 100 µM (inactive) | GI50 (SF-268): > 100 µM (inactive) | GI50 (Malme-3M): > 100 µM (inactive) | GI50 (SK-MEL-5): > 100 µM (inactive)
